From US7060725B2, “Substituted sulfamate anticonvulsant derivatives” (Janssen Pharmaceutica N.V., priority 2002, dated 2006)

What was measured:
[1] = tested on: maximal electroshock seizure (MES-induced seizure spread); test: Maximal electroshock seizure (MES) test, mouse; type: in vivo, mice
Description: Anticonvulsant activity was determined using the standard MES model for generalized tonic-clonic seizures (Swinyard E A, Woodhead J H, White H S, Franklin M R, In: Levy R H, Mattson R H, Meldrum B S, Penry J K, Dreifuss F E eds. Antiepileptic drugs. New York: Raven Press, 1989:85–102).
An electric stimulus of 0.2 sec duration, 60 Hz, 50 mA in mice, 150 mA in rats, was delivered via corneal electrodes primed with an electrolyte solution containing an anesthetic agent (0.5% tetracaine hydrochloride in 0.9% saline).
Mice or rats were randomly selected into control and test groups. The animals were dosed with vehicle or test compound, at varying concentrations. […] Rats were subjected to electrical stimulus at time intervals between 15 minutes and 4 hours following administration of test compound. Abolition of the hind limb tonic extensor component was an indication of the test compound's ability to inhibit MES-induced seizure spread.
The ED50 (the calculated dose required to block the hindlimb tonic-extensor component of the maximal electroshock seizure in 50% of the animals tested) was calculated. A probit analysis (Finney D J. Probit Analysis. Cambridge, England: Cambridge University Press, 1971) was used to calculate the ED50.
Following the mouse procedure described above, representative compounds of the instant invention were tested for biological activity in the mouse, with results as listed in Table 5. Mouse activity is listed as number of mice active/total number of mice tested @ time after administration of the test compound.

[2] = tested on: maximal electroshock seizure (MES-induced seizure spread); test: Maximal electroshock seizure (MES) test, rat; type: in vivo, rats
Description: Anticonvulsant activity was determined using the standard MES model for generalized tonic-clonic seizures (Swinyard E A, Woodhead J H, White H S, Franklin M R, In: […], Meldrum […], Dreifuss F E eds. Antiepileptic drugs. New York: Raven Press, 1989:85-102). An electric stimulus of 0.2 sec duration, 60 Hz, 50 mA in mice, 150 mA in rats, was delivered via corneal electrodes primed with an electrolyte solution containing an anesthetic agent (0.5% tetracaine hydrochloride in 0.9% saline). Mice or rats were randomly selected into control and test groups. The animals were dosed with vehicle or test compound, at varying concentrations. Mice were subjected to the electrical stimulus at 30 minutes and 4 hours following administration of test compound. […] Abolition of the hind limb tonic extensor component was an indication of the test compound's ability to inhibit MES-induced seizure spread. […] A probit analysis (Finney D J. Probit Analysis. Cambridge, England: Cambridge University Press, 1971) was used to calculate the ED50. Following the rat procedure described above, representative compounds of the instant invention were tested for biological activity in the rat, with results as listed in Table 6 and 7. Rat activity is listed as number of rats active/total number of rats tested @ time after administration of the test compound.

[3] = tested on: simple and complex partial seizure and secondarily generalized seizures; conditions: cited from earlier work
[4] = 100 mg/kg, @ 0.5 hrs after administration
[5] = 300 mg/kg, @ 4 hrs after administration

**Q.** With `COC(=O)CNS(=O)(=O)OCC12OCC3OC(C)(C)OC3C1OC(C)(C)O2` (stereo not shown) [Compound 5] as the compound, how does the “Mouse Activity” value ([1]; dosage 30, 100, 300 mg/kg) read?
**A.** Its value is “No activity”.

**Q.** What about the ED50 ([2]; @ 2 hrs) of the same compound?
**A.** Its ED50 is >80 @ 2 hrs m/k.

**Q.** And the “Rat Activity (oral) (number of rats active/total number of rats tested)” value ([2]; 30 mg/kg, @ 2 hrs)?
**A.** Its value is 3/4 @ 2 hrs.

**Q.** And the “Rat Activity (oral) (number of rats active/total number of rats tested)” value ([2]; 30 mg/kg, @ 4 hrs)?
**A.** The value was 1/4 @ 4 hrs.

**Q.** With `CC1(C)OC2COC3(COS(=O)(=O)NC(c4ccccc4)c4ccccc4)OC(C)(C)OC3C2O1` (stereo not shown) [Compound 37] as the compound, how does the “Mouse Activity (number of mice active/total number of mice tested)” value [1, 4] read?
**A.** Its value is 0/3 @ ½ hr,.

**Q.** And the “Mouse Activity (number of mice active/total number of mice tested)” value ([1]; 100 mg/kg, @ 1 hr after administration)?
**A.** Its value is 0/3 @ ½ hr,.

**Q.** And the “Mouse Activity (number of mice active/total number of mice tested)” value ([1]; 100 mg/kg, @ 2 hrs after administration)?
**A.** Its value is 1/3 @ ¼ hrs,.

**Q.** What about the “Mouse Activity (number of mice active/total number of mice tested)” value ([1]; 100 mg/kg, @ 6 hrs after administration) of the same compound?
**A.** The value was 1/3 @ ¼ hrs,.

**Q.** What about the “Mouse Activity (number of mice active/total number of mice tested)” value ([1]; 100 mg/kg, @ ¼ hrs after administration) of the same compound?
**A.** The value was 1/3 @ ¼ hrs,.

**Q.** What about the “Mouse Activity” value ([1]; dosage 30 mg/kg) of the same compound?
**A.** The value was “No Activity”.

**Q.** What about the “Mouse Activity” value ([1]; dosage 300 mg/kg) of the same compound?
**A.** Its value is “No activity”.

**Q.** What about the “Rat Activity (oral) (number of rats active/total number of rats tested)” value ([2]; 30 mg/kg, @ 1 hr) of the same compound?
**A.** The value was 1/4 @ 1 hr.

**Q.** And the “Rat Activity (oral) (number of rats active/total number of rats tested)” value ([2]; 30 mg/kg, @ 2 hrs)?
**A.** The value was 2/4 @ 2 hrs.

**Q.** And the “Rat Activity (oral) (number of rats active/total number of rats tested)” value ([2]; 30 mg/kg, @ 4 hrs)?
**A.** The value was 1/4 @ 4 hrs.

**Q.** Which results are given for `CCC(=O)[N-]S(=O)(=O)OCC12OCC3OC(C)(C)OC3C1OC(C)(C)O2.[Na+]` (stereo not shown) [Compound 19]?
**A.** Mouse Activity (number of mice active/total number of mice tested) [1, 4]: 0/3 @ 0.5 hrs; Mouse Activity (number of mice active/total number of mice tested) ([1]; 100 mg/kg, @ 4 hrs after administration): 3/3 @ 4 hrs; Mouse Activity (number of mice active/total number of mice tested) ([1]; 300 mg/kg, @ 0.5 hrs after administration): 1/1 @ 0.5 hrs; Mouse Activity (number of mice active/total number of mice tested) [1, 5]: 1/1 @ 4 hrs; Mouse Activity ([1]; dosage 30 mg/kg): No activity; ED50 ([2]; @ 4 hrs): 11.22 @ 4 hrs m/k; Rat Activity (oral) (number of rats active/total number of rats tested) ([2]; 30 mg/kg, @ 0.25 hrs): 1/4 @ 0.25 hrs; Rat Activity (oral) (number of rats active/total number of rats tested) ([2]; 30 mg/kg, @ 0.5 hrs): 0/4 @ 0.5 hrs; Rat Activity (oral) (number of rats active/total number of rats tested) ([2]; 30 mg/kg, @ 1 hr): 1/4 @ 1 hr; Rat Activity (oral) (number of rats active/total number of rats tested) ([2]; 30 mg/kg, @ 2 hrs): 4/4 @ 2 hrs; Rat Activity (oral) (number of rats active/total number of rats tested) ([2]; 30 mg/kg, @ 4 hrs): 4/4 @ 4 hrs

**Q.** With `CN(O)S(=O)(=O)OCC12OCC3OC(C)(C)OC3C1OC(C)(C)O2` (stereo not shown) [Compound 12] as the compound, how does the “Mouse Activity” value ([1]; dosage 30, 100, 300 mg/kg) read?
**A.** The value was “No activity”.

**Q.** What about the “Rat Activity (oral) (number of rats active/total number of rats tested)” value ([2]; 15 mg/kg, @ 1 hr) of the same compound?
**A.** The value was 1/4 @ 1 hr.

**Q.** Which results are given for `CC(C)Oc1ccccc1N1CCN(S(=O)(=O)OCC23OCC4OC(C)(C)OC4C2OC(C)(C)O3)CC1` (stereo not shown) [Compound 39]?
**A.** Mouse Activity ([1]; dosage 30, 100, 300 mg/kg): No activity; Rat Activity (oral) (number of rats active/total number of rats tested) ([2]; 30 mg/kg, @ 4 hrs): 1/4 @ 4 hrs

**Q.** What does the source list for `CC1(C)OC2[C@@H](CO[C@@]3(COS(=O)(=O)NO)OC(C)(C)O[C@@H]23)O1` (stereo partly drawn) [Compound 9, N-hydroxy-2,3:4,5-bis-O-(1-methylethylidene)-β-D-fructopyranose sulfamate]?
**A.** Mouse Activity (number of mice active/total number of mice tested) [1, 5]: 1/1 @ 4 hrs; Mouse Activity ([1]; dosage 30 mg/kg): No activity; ED50 ([2]; @ 4 hrs): 68.72 @ 4 hrs m/k; Rat Activity (oral) (number of rats active/total number of rats tested) ([2]; 30 mg/kg, @ 1 hr): 1/4 @ 1 hr; Rat Activity (oral) (number of rats active/total number of rats tested) ([2]; 30 mg/kg, @ 2 hrs): 2/4 @ 2 hrs; Rat Activity (oral) (number of rats active/total number of rats tested) ([2]; 30 mg/kg, @ 4 hrs): 1/4 @ 4 hrs

**Q.** With `CC1(C)O[C@@H]2[C@@H](CO[C@@]3(COS(N)(=O)=O)OC(C)(C)O[C@@H]23)O1` [TPM, 2,3:4,5-bis-O-(1-methylethylidene)-β-D-fructopyranose sulfamate, reference compound] as the compound, how does the ED50 ([1]; @ 2 hrs) read?
**A.** Its ED50 is “ED50 = 33 m/k”.

**Q.** What about the “efficacy in clinical trials of human epilepsy” value [3] of the same compound?
**A.** The value was “effective as adjunctive therapy or as monotherapy”.
